Literature values, collected in patent US8644910B2, “Imaging protocols” (Biosensors International Group, Ltd., priority 2005, dated 2014).
Where two headings read alike, the source gives them in different places.

Experiments:
[1] = administration to lactating women
[2] = 600 MBq, common bone scan
[3] = not given; remark: listed apart in the source
[4] = stored at 15-25° C. before and after reconstitution
[5] = prepared product

## O=C([O-])CC(O)(CC(=O)[O-])C(=O)[O-].[Ga+3] [^67Ga-citrate, Gallium Citrate]
[1]
  breast feeding interruption advised: Complete cessation

## O=P(O)(O)CP(=O)(O)O [^99mTc-MDP, medronate, metal not drawn]
[2]
  effective dose: 3 mSv

## [99Tc].[C-]#[N+]CC(C)(C)OC.[C-]#[N+]CC(C)(C)OC.[C-]#[N+]CC(C)(C)OC.[C-]#[N+]CC(C)(C)OC.[C-]#[N+]CC(C)(C)OC.[C-]#[N+]CC(C)(C)OC [^99mTc-Sestamibi, technetium-99m-methoxyisobutylisonitrile]
At exercise
  Myocardial uptake: 1.5 % of the injected dose
At rest
  Myocardial uptake: 1.2 % of the injected dose
[3]; in 48 hours
  cleared through the feces: approximately thirty-three
[3]; in vivo
  excreted in the urine: Twenty-seven
  major pathway for clearance: hepatobiliary system
  metabolism: excreted without any evidence of metabolism
[4]
  time for use after preparation: ≤ 6 h

## [Na+].[O]=[Tc](=[O])(=[O])[O-] [^99mTc-pertechnetate, Sodium pertechnetate]
[1]
  breast feeding interruption advised: brief interruption (hours to days)

## N=C(N)NCc1cccc([131I])c1 [^123I-metaiodobenzylguanidine, metaiodobenzylguanidine]
[1]
  breast feeding interruption advised: brief interruption (hours to days)

## [I-].[Na+] [^123I-sodium iodide, sodium iodide]
[1]
  breast feeding interruption advised: Complete cessation

## [Cl][201Tl] [^201Tl, Tl-201-thallous chloride]
[1]
  breast feeding interruption advised: brief interruption (hours to days)

## Technetium Tc 99m Arcitumomab (CEA-Scan)
[5]
  shelf life: ≤ 4 h
